The text below walks through data of patent publication US20040152994A1, “Liver function test” (priority 2001, published 2004).

This data set has as its system hepatic glycine conjugation. Conditions: in vivo. The protocol:
The test is carried out in the morning on an empty stomach after an overnight fast.
To equilibrate the body's glycine pool, an oral bolus of 3 g of glycine dissolved in 200 ml of water is given 1 hour prior to tracer administration.
At t=0 min, a weight adjusted dose of [^13C−1]-glycine (eg. 150 mg for 44.5 to 95.2 kg body weight) was given orally. Breath samples are taken subsequently every 10 minutes over a period of 300 minutes.
At t=160 min, a second dose of [^13C−1]-glycine was given, followed by three equal dozes of sodium benzoate (eg. 284.2 mg) at 170, 180 and 190 minutes.
Breath samples are measured for ^13CO2 content above base line, ie. the mean of 3 pre-test samples. Time to peak of ^13CO2 exhalation, ^13CO2 exhalation in percentage of given dose [% dose/hour] and cumulative ^13CO2 exhalation over time are determined. Mathematical modelling of the various curves is used to de-convolute the dose recovery curves of parts A and B.
The breath test consisted of two parts, A and B, that were at first carried out on 2 consecutive days and later combined into an one-day protocol.
Part A; After an overnight fast, subjects were given orally a weight adjusted dose of the tracer ^13C-glycine dissolved in water
Part B: After an, overnight fast, subjects were given orally the same amount of tracer plus an optimised amount of sodium benzoate.
For the one-day protocol, part B commenced 130 min after the start of part A.
Breath samples were collected in 10 min intervals.
10 volunteers (5 women, 5 men) with no medical history of liver problems were used as control group.
9 in-patients (6 women, 3 men) with varying stages of liver failure and different disease etiology were tested. Ethical approval for this ^13CO2-breath test, study was sought and obtained from the Tayside Healthboard Ethics Committee.

Consider `NC[13C](=O)O` [^13C-glycine, [^13C−1]-glycine], for which the “Time to peak PDR in patients compared to the control group” value is given as “significantly delayed”, the “highest GCa-value (apparent glycine conjugation) in patients” value amounted to 23.26% and the “mean PDRm ratio” value stood at 0.59.
